The species entered for experiment [1] is Homo sapiens. The experiment is described as follows: Inhibition of LTB4 biosynthesis at 1 uM, in calcium ionophore-stimulated human whole blood leukocyte (HBL) assay. It is filed as functional.
Experiment [2] deals with T1, Polyunsaturated fatty acid 5-lipoxygenase (Rattus norvegicus) (UniProt P12527).
T1 sequence (whole entry): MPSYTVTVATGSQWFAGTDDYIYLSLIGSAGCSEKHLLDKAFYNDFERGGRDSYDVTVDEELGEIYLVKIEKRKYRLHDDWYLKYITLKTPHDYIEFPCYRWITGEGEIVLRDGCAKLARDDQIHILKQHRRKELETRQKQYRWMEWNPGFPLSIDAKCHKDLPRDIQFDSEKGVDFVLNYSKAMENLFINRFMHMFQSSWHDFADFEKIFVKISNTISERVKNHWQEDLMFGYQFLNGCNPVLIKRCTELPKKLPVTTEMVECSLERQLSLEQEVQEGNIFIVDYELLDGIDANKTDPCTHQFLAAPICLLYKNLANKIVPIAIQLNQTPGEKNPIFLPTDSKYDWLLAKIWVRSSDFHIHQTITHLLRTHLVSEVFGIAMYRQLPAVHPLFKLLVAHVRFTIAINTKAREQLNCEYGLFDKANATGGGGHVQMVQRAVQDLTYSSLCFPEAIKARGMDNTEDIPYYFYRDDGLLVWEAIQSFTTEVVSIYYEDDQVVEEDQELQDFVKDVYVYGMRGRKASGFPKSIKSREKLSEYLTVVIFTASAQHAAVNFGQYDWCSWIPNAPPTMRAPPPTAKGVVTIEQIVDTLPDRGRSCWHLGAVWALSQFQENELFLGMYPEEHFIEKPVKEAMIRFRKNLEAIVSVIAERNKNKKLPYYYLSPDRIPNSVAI
The experiment can be described thus: Ex vivo inhibitory activity at an peroral dose of 10 mg/Kg against LTB4 biosynthesis in rat blood, after pretreatment period of 6 hr. It is filed as functional.

In experiment [3] the test system is Rattus norvegicus. The experiment is described as follows: Ex vivo inhibitory activity at an peroral dose of 5 mg/Kg against LTB4 biosynthesis in rat blood, after pretreatment period of 6 hr. It is filed as functional. The note with it: po.
Experiment [4] deals with T1, Polyunsaturated fatty acid 5-lipoxygenase (Rattus norvegicus). The experiment can be described thus: Ex vivo inhibitory activity at an peroral dose of 10 mg/Kg against LTB4 biosynthesis in rat blood, after pretreatment period of 3h. It is filed as functional.
The target is the same in experiment [5]. The experiment is described as follows: Activity against LTB4 biosynthesis in the rat RPAR pleurisy model po (10 mg/kg). It counts as functional, organism-based.

`COc1ccc(-c2nc(COc3cccc(CN(O)C(N)=O)c3)cs2)cc1`: the inhibition at 1 µM in experiment [1] stood at 50%. Besides, the inhibition in experiment [2] was found to be 0%.

In the case of `NC(=O)N(O)Cc1ccc(OCCc2coc(-c3ccccc3)n2)cc1`, the inhibition at 1 µM in experiment [1] was 47%. Moreover, the inhibition in vivo at 5 mg/kg in experiment [3] was 0%.

For `Cc1oc(-c2cccc(C(F)(F)F)c2)nc1COc1cccc(CN(O)C(N)=O)c1`, the inhibition at 1 µM in experiment [1] is 51%. Moreover, the inhibition in experiment [2] worked out at 0%.

As to `Cc1oc(-c2cccs2)nc1CCOc1ccc(CN(O)C(N)=O)cc1`, the inhibition in experiment [4] amounted to 24%. The inhibition at 1 µM in experiment [1] came to 64%.

Take `NC(=O)N(O)Cc1ccc(OCc2csc(-c3ccc(C(F)(F)F)cc3)n2)cc1`: in experiment [1], the inhibition at 1 µM was determined as 56%. In addition, in experiment [2], the inhibition is 0%.

On to `Cc1oc(-c2ccc(Cl)cc2)nc1COc1cccc(CN(O)C(N)=O)c1`, for which the inhibition in experiment [5] stood at 47%; in experiment [2], 38%. Also, the inhibition at 1 µM in experiment [1] came to 77%.

Consider `NC(=O)N(O)Cc1ccc(OCc2csc(-c3ccc(Cl)cc3)n2)cc1`, for which the inhibition at 1 µM in experiment [1] is 71%. In experiment [2], the inhibition was 0%.

As for `Cc1oc(-c2ccc(F)cc2)nc1CCOc1ccc(CN(O)C(N)=O)cc1`, the inhibition in experiment [4] worked out at 66%. In addition, in experiment [1], the inhibition at 1 µM was determined as 70%.

As to `NC(=O)N(O)Cc1cccc(OCc2csc(-c3ccc(Cl)cc3)n2)c1`, the values for the inhibition in experiment [5] and in experiment [2] were 0% and 63%, respectively. In experiment [1], the inhibition at 1 µM was determined as 68%.

Turning to `NC(=S)N(O)Cc1cccc(OCc2coc(-c3ccc(F)cc3)n2)c1`, the inhibition at 1 µM in experiment [1] was determined as 61%. In addition, the inhibition in experiment [2] turned out to be 0%.

Regarding `Cc1oc(-c2ccccc2F)nc1CCOc1ccc(CN(O)C(N)=O)cc1`, the inhibition in experiment [4] was 71%. For the same compound, the inhibition at 1 µM in experiment [1] stood at 54%.

Consider `Cc1oc(-c2ccc(SC(F)(F)F)cc2)nc1CCOc1ccc(CN(O)C(N)=O)cc1`, for which, in experiment [1], the inhibition at 1 µM was determined as 50%. In addition, the inhibition in experiment [2] worked out at 0%.

Consider `COc1ccc(-c2nc(COc3ccc(CN(O)C(N)=O)cc3)cs2)cc1`, for which the inhibition at 1 µM in experiment [1] is 56%. Moreover, the inhibition in experiment [2] amounted to 69%.

For `NC(=O)N(O)Cc1ccc(OCCc2csc(-c3ccccc3)n2)cc1`, the inhibition at 1 µM in experiment [1] amounted to 19%.

`Cc1oc(-c2cccc(F)c2)nc1CCOc1ccc(CN(O)C(N)=O)cc1`: the inhibition in experiment [4] was 80%. For the same compound, in experiment [1], the inhibition at 1 µM was 63%.

Take `NC(=O)N(O)Cc1ccc(OCc2coc(-c3ccc(C(F)(F)F)cc3)n2)cc1`: the inhibition at 1 µM in experiment [1] was found to be 32%. Further, the inhibition in experiment [2] was found to be 68%.

`Cc1oc(-c2ccccc2)nc1CCOc1cccc(CN(O)C(N)=O)c1`: in experiment [4], the inhibition amounted to 0%. Moreover, the inhibition at 1 µM in experiment [1] came to 51%.

`NC(=O)N(O)Cc1cccc(OCCc2csc(-c3ccc(C(F)(F)F)cc3)n2)c1`: the inhibition at 1 µM in experiment [1] amounted to 30%. The inhibition in experiment [2] was 0%.

For the compound `NC(=O)N(O)Cc1ccc(OCc2csc(-c3ccccc3)n2)cc1`, the inhibition at 1 µM in experiment [1] is 44%. Further, in experiment [2], the inhibition stood at 67%.

As for `NC(=O)N(O)Cc1ccc(OCCc2csc(-c3ccc(C(F)(F)F)cc3)n2)cc1`, the inhibition at 1 µM in experiment [1] is 57%. Also, in experiment [3], the inhibition in vivo at 5 mg/kg amounted to 0%.

As for `Cc1oc(-c2ccccc2)nc1CCOc1cccc(C(C)N(O)C(N)=O)c1` (stereo unspecified), the inhibition at 1 µM in experiment [1] came out at 34%.

For `CCCCCCc1nc(CCOc2ccc(CN(O)C(N)=O)cc2)c(C)o1`, the inhibition at 1 µM in experiment [1] amounted to 44%.

Regarding `Cc1oc(-c2ccco2)nc1CCOc1ccc(CN(O)C(N)=O)cc1`, in experiment [4], the inhibition was determined as 41%. Besides, the inhibition at 1 µM in experiment [1] is 64%.

`Cc1oc(-c2cccc3ccccc23)nc1CCOc1ccc(CN(O)C(N)=O)cc1`: the inhibition at 1 µM in experiment [1] was determined as 42%.

Take `NC(=S)N(O)Cc1ccc(OCc2csc(-c3ccc(Cl)cc3)n2)cc1`: the inhibition at 1 µM in experiment [1] was determined as 57%. In addition, in experiment [3], the inhibition in vivo at 5 mg/kg came out at 0%.

As for `Cc1oc(-c2ccccc2)nc1COc1ccc(CN(O)C(N)=O)cc1Cl`, the inhibition in experiment [4] is 69%. Besides, the inhibition at 1 µM in experiment [1] was found to be 31%.

For `Cc1oc(-c2ccc(C(F)(F)F)cc2)nc1CCOc1ccc(CN(O)C(N)=O)cc1F`, the inhibition at 1 µM in experiment [1] was 36%.

The inhibition is the change of the read-out against control, counted positive when it falls. One may read the inhibition in vivo as the percentage by which the read-out fell short of the control.

These data come from ChEMBL document CHEMBL1129782, “Azole phenoxy hydroxyureas as selective and orally active inhibitors of 5-lipoxygenase” (J Med Chem, 1996).
